Earlier results in US20210023041A1, “FORMULATIONS AND COMPOSITIONS OF DOCETAXEL” (Zhuhai Beihai Biotech Co., Ltd., priority 2018, published 2021).

In the case of CC(=O)O[C@@]12CO[C@@H]1C[C@H](O)[C@@]1(C)C(=O)[C@H](O)C3=C(C)[C@@H](OC(=O)[C@H](O)[C@@H](NC(=O)OC(C)(C)C)c4ccccc4)C[C@@](O)([C@@H](OC(=O)c4ccccc4)[C@H]21)C3(C)C [Docetaxel], the solubility in water is listed as “practically insoluble in water”, the “in vitro binding to plasma proteins” value (plasma proteins; in three cancer patients) is listed as “approximately 97%” and the protein bound (plasma proteins; in vitro studies, mainly to α1-acid glycoprotein, albumin, and lipoproteins) is listed as “about 94%”. The “potency in inhibiting microtubule depolymerization relative to paclitaxel” value (microtubule) was “twice as potent as paclitaxel”.
